Key:
Assay in all cases: relative viability (nuclei count vs DMSO), 5 days (fraction); higher = more cells survive
Bleomycin + Lapatinib = compound: CC1=C(N=C(N=C1N)[C@H](CC(=O)N)NC[C@@H](C(=O)N)N)C(=O)N[C@@H]([C@H](C2=CN=CN2)OC3C(C(C(C(O3)CO)O)O)OC4C(C(C(C(O4)CO)O)OC(=O)N)O)C(=O)N[C@H](C)[C@H]([C@H](C)C(=O)N[C@@H]([C@@H](C)O)C(=O)NCCC5=NC(=CS5)C6=NC(=CS6)C(=O)NCCC[S+](C)C)O [Bleomycin] + CS(=O)(=O)CCNCc1ccc(-c2ccc3ncnc(Nc4ccc(OCc5cccc(F)c5)c(Cl)c4)c3c2)o1 [Lapatinib] (partner 2 µM); conditions: main component drawn
Outline: (§1)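 A single step with final 0.05% Triton X-100, 1% formaldehyde and 1 ug/ml Hoechst fixed the cells and stained nuclei 5 days after treatment. Lung cancer cell lines in 1536-well plates had been treated by pin tool the day after seeding with one drug alone or a fixed anchor-drug dose plus five library-drug doses (not always all listed) in √10 steps, and nuclei were counted on 4× images. Relative viability is the ratio of nuclei in treated wells to nuclei in vehicle wells, taken as the median of duplicate plates.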

Bleomycin + Foretinib = compound: CC1=C(N=C(N=C1N)[C@H](CC(=O)N)NC[C@@H](C(=O)N)N)C(=O)N[C@@H]([C@H](C2=CN=CN2)OC3C(C(C(C(O3)CO)O)O)OC4C(C(C(C(O4)CO)O)OC(=O)N)O)C(=O)N[C@H](C)[C@H]([C@H](C)C(=O)N[C@@H]([C@@H](C)O)C(=O)NCCC5=NC(=CS5)C6=NC(=CS6)C(=O)NCCC[S+](C)C)O [Bleomycin] + COc1cc2c(Oc3ccc(NC(=O)C4(C(=O)Nc5ccc(F)cc5)CC4)cc3F)ccnc2cc1OCCCN1CCOCC1 [Foretinib] (partner 0.25 µM); conditions: main component drawn
Outline: as §1

Etoposide + OSI-027 = compound: COc1cc([C@@H]2c3cc4c(cc3[C@@H](O[C@@H]3O[C@@H]5CO[C@@H](C)O[C@H]5[C@H](O)[C@H]3O)[C@H]3COC(=O)[C@H]23)OCO4)cc(OC)c1O [Etoposide] + COc1cccc2cc(-c3nc([C@H]4CC[C@H](C(=O)O)CC4)n4ncnc(N)c34)[nH]c12 [OSI-027] (partner 0.5 µM)
Outline: as §1

Etoposide + AZD7762 = compound: COc1cc([C@@H]2c3cc4c(cc3[C@@H](O[C@@H]3O[C@@H]5CO[C@@H](C)O[C@H]5[C@H](O)[C@H]3O)[C@H]3COC(=O)[C@H]23)OCO4)cc(OC)c1O [Etoposide] + NC(=O)Nc1cc(-c2cccc(F)c2)sc1C(=O)N[C@H]1CCCNC1 [AZD7762] (partner 0.2 µM)
Outline: as §1

Cell Line | relative viability (Bleomycin + Lapatinib; first compound 0.01 µM) | relative viability (Bleomycin + Lapatinib; first compound 0.03162 µM) | relative viability (Bleomycin + Lapatinib; first compound 0.1 µM) | relative viability (Bleomycin + Lapatinib; first compound 0.3162 µM) | relative viability (Bleomycin + Lapatinib; first compound 1 µM) | relative viability (Bleomycin + Foretinib; first compound 0.01 µM) | relative viability (Bleomycin + Foretinib; first compound 0.03162 µM) | relative viability (Bleomycin + Foretinib; first compound 0.1 µM) | relative viability (Bleomycin + Foretinib; first compound 0.3162 µM) | relative viability (Bleomycin + Foretinib; first compound 1 µM) | relative viability (Etoposide + OSI-027; first compound 0.01 µM) | relative viability (Etoposide + OSI-027; first compound 0.03162 µM) | relative viability (Etoposide + OSI-027; first compound 0.1 µM) | relative viability (Etoposide + OSI-027; first compound 0.3162 µM) | relative viability (Etoposide + OSI-027; first compound 1 µM) | relative viability (Etoposide + AZD7762; first compound 0.01 µM) | relative viability (Etoposide + AZD7762; first compound 0.03162 µM) | relative viability (Etoposide + AZD7762; first compound 0.1 µM) | relative viability (Etoposide + AZD7762; first compound 0.3162 µM) | relative viability (Etoposide + AZD7762; first compound 1 µM)
EPLC-272H | 0.586 | 0.812 | 0.369 | 0.205 | 0.109 | 0.61 | 0.653 | 0.51 | 0.17 | 0.1 | 0.287 | 0.293 | 0.209 | 0.326 | 0.243 | 0.272 | 0.269 | 0.183 | 0.182 | 0.0802
H3255 | 0.244 | 0.235 | 0.259 | 0.214 | 0.173 | 0.705 | 0.813 | 0.699 | 0.553 | 0.432 | 0.617 | 0.709 | 0.417 | 0.542 | 0.477 | 0.949 | 0.95 | 0.726 | 0.66 | 0.668
HARA | 0.764 | 0.734 | 0.704 | 0.644 | 0.308 | 0.794 | 0.793 | 0.777 | 0.397 | 0.379 | 0.517 | 0.554 | 0.151 | 0.422 | 0.118 | 0.436 | 0.347 | 0.236 | 0.301 | 0.291
HCC-15 | 0.808 | 0.801 | 0.806 | 0.299 | 0.223 | 0.869 | 0.913 | 0.752 | 0.33 | 0.227 | 0.785 | 0.718 | 0.563 | 0.291 | 0.144 | 1.2 | 1.34 | 1.32 | 1.01 | 0.777
HCC-78 | 0.64 | 0.918 | 0.549 | 0.429 | 0.215 | 0.533 | 0.519 | 0.534 | 0.399 | 0.507 | 0.387 | 0.392 | 0.345 | 0.376 | 0.281 | 0.808 | 0.771 | 0.392 | 0.658 | 0.409
HCC-366 | 0.52 | 0.337 | 0.212 | 0.0246 | 0.0258 | 0.872 | 0.702 | 0.337 | 0.0868 | 0.0636 | 0.911 | 1.16 | 0.466 | 0.374 | 0.0799 | 0.227 | 0.251 | 0.187 | 0.091 | 0.0373
HCC-827 | 0.197 | 0.204 | 0.187 | 0.173 | 0.15 | 0.955 | 1.22 | 0.913 | 0.558 | 0.266 | 0.742 | 0.773 | 0.569 | 0.668 | 0.174 | 0.206 | 0.223 | 0.185 | 0.167 | 0.177
HOP-62 | 0.485 | 0.395 | 0.15 | 0.14 | 0.141 | 0.596 | 0.458 | 0.39 | 0.193 | 0.127 | 0.802 | 0.882 | 0.521 | 0.696 | 0.523 | 0.486 | 0.634 | 0.284 | 0.329 | 0.24
LC-2-ad | 0.674 | 0.264 | 0.286 | 0.127 | 0.105 | 0.754 | 0.729 | 0.483 | 0.264 | 0.281 | 0.81 | 0.839 | 0.473 | 0.42 | 0.25 | 0.762 | 0.882 | 0.853 | 0.741 | 0.571
LCLC-97TM1 | 0.264 | 0.288 | 0.151 | 0.168 | 0.093 | 0.912 | 0.809 | 0.628 | 0.274 | 0.176 | 0.532 | 0.517 | 0.403 | 0.423 | 0.116 | 0.226 | 0.323 | 0.173 | 0.15 | 0.099
LK-2 | 0.66 | 0.488 | 0.542 | 0.261 | 0.248 | 0.803 | 0.779 | 0.743 | 0.36 | 0.285 | 0.248 | 0.214 | 0.185 | 0.194 | 0.158 | 0.395 | 0.659 | 0.255 | 0.319 | 0.2
LOU-NH91 | 0.679 | 0.609 | 0.51 | 0.361 | 0.298 | 0.781 | 0.663 | 0.649 | 0.4 | 0.309 | 0.723 | 0.794 | 0.493 | 0.71 | 0.612 | 0.784 | 0.836 | 0.67 | 0.656 | 0.482
LU99A | 0.58 | 0.742 | 0.271 | 0.138 | 0.108 | 0.683 | 0.64 | 0.503 | 0.297 | 0.19 | 0.307 | 0.343 | 0.242 | 0.308 | 0.228 | 0.424 | 0.351 | 0.17 | 0.175 | 0.117
LXF-289 | 0.807 | 0.884 | 0.635 | 0.206 | 0.179 | 0.933 | 0.888 | 0.804 | 0.36 | 0.14 | 0.783 | 0.784 | 0.67 | 0.71 | 0.431 | 1.07 | 1.1 | 1.23 | 0.892 | 0.4
NCI-H23 | 0.419 | 0.314 | 0.268 | 0.197 | 0.165 | 0.699 | 0.586 | 0.408 | 0.247 | 0.218 | 0.754 | 0.609 | 0.406 | 0.542 | 0.207 | 0.246 | 0.307 | 0.187 | 0.195 | 0.172
NCI-H322M | 0.467 | 0.551 | 0.543 | 0.383 | 0.348 | 0.79 | 0.951 | 0.865 | 0.563 | 0.401 | 0.565 | 0.607 | 0.509 | 0.468 | 0.389 | 0.473 | 0.562 | 0.47 | 0.502 | 0.473
NCI-H358 | 0.381 | 0.466 | 0.354 | 0.256 | 0.254 | 0.606 | 0.591 | 0.556 | 0.351 | 0.254 | 0.711 | 0.757 | 0.366 | 0.136 | 0.0875 | 0.512 | 0.527 | 0.332 | 0.288 | 0.266
NCI-H460 | 0.296 | 0.29 | 0.0624 | 0.0161 | 0.0213 | 0.68 | 0.651 | 0.283 | 0.0633 | 0.0375 | 0.601 | 0.731 | 0.415 | 0.0887 | 0.0402 | 0.61 | 0.704 | 0.407 | 0.0776 | 0.0538
NCI-H596 | 0.852 | 0.742 | 0.547 | 0.416 | 0.452 | 0.586 | 0.629 | 0.464 | 0.354 | 0.247 | 0.695 | 0.831 | 0.467 | 0.56 | 0.546 | 0.923 | 1.21 | 0.662 | 1.3 | 0.705
NCI-H647 | 0.353 | 0.336 | 0.191 | 0.0899 | 0.0986 | 0.482 | 0.308 | 0.212 | 0.0979 | 0.073 | 0.579 | 0.627 | 0.456 | 0.491 | 0.267 | 0.417 | 0.323 | 0.307 | 0.165 | 0.0849
NCI-H650 | 0.537 | 0.748 | 0.686 | 0.318 | 0.21 | 0.837 | 0.915 | 0.823 | 0.564 | 0.288 | 0.571 | 0.506 | 0.44 | 0.443 | 0.249 | 0.859 | 0.977 | 0.563 | 0.538 | 0.207
NCI-H727 | 0.718 | 0.781 | 0.695 | 0.204 | 0.472 | 0.902 | 0.711 | 0.641 |  | 0.705 | 0.724 | 0.674 |  | 0.542 | 0.513 | 0.647 | 0.582 | 0.405 | 0.527 | 0.579
NCI-H838 | 0.478 | 0.229 | 0.184 | 0.159 | 0.152 | 0.617 | 0.368 | 0.274 | 0.201 | 0.204 | 0.37 | 0.43 | 0.307 | 0.403 | 0.325 | 0.884 | 0.857 | 0.805 | 0.787 | 0.722
NCI-H1355 | 0.901 | 1.15 | 0.837 | 0.337 | 0.257 | 0.931 | 0.971 | 0.937 | 0.52 | 0.348 | 0.383 | 0.396 | 0.3 | 0.345 | 0.219 | 0.746 | 0.862 | 0.501 | 0.586 | 0.305
NCI-H1395 | 0.965 | 0.841 | 0.711 | 0.417 | 0.397 | 0.886 | 0.932 | 0.827 | 0.672 | 0.497 | 0.625 | 0.759 | 0.506 | 0.605 | 0.469 | 0.423 | 0.435 | 0.4 | 0.375 | 0.362
NCI-H1437 | 0.711 | 0.743 | 0.775 | 0.296 | 0.373 | 1.18 | 1.12 | 0.959 | 0.695 | 0.619 | 1.04 | 0.891 | 0.423 | 0.635 | 0.31 | 1.03 | 1.11 | 1.14 | 1.07 | 0.722
NCI-H1651 | 0.75 | 0.653 | 0.595 | 0.229 | 0.149 | 0.716 | 0.499 | 0.496 | 0.31 | 0.213 | 0.591 | 0.641 | 0.438 | 0.44 | 0.155 | 0.476 | 0.508 | 0.287 | 0.274 | 0.186

— the supplement of paper PMC10307832
